Reference: PMC7468908 (Nutrients, 2020)
Read-outs that look alike come from different tables or passages of the source.

Experiments:
[1] = molecular target: T1, CYP2C19 (Homo sapiens, UniProt P33261); experiment: CYP2C19-catalyzed S-mephenytoin hydroxylation (CypExpress kit, HPLC); assay type: biochemical; conditions: for concentration inducing statistically significant (p < 0.01) decrease in metabolite formation, CYP2C19: substrate 5 µM S-mephenytoin
T1 construct: purchased Sigma-Aldrich
Procedure: Inhibition of CYP2C19 [47], 3A4 [48], and 2D6 [49] by Q and its conjugates was tested based on our previously reported methods, without modifications.
S-mephenytoin and 4-hydroxymephenytoin (CYP2C19 assay), testosterone and 6β-hydroxytestosterone (CYP3A4 assay), as well as dextromethorphan and dextrorphan (CYP2D6 assay) were quantified using the previously described methods, with minor modifications.
In CYP2C19 assay, the mobile phase contained acetonitrile, methanol (VWR), and sodium phosphate buffer (10 mM, pH 4.55) (17:10:73 v/v%). Samples were driven through a guard column (Phenomenex Security Guard C8, 4.0 × 3.0 mm) linked to an analytical column (Phenomenex C8 100 × 4.6 mm; 2.6 µm), with a 1 mL/min flow rate, at room temperature. After the isocratic elution, S-mephenytoin and 4-hydroxymephenytoin were detected at 230 nm.

[2] = molecular target: T2, BCRP (Homo sapiens, UniProt Q9UNQ0); experiment: BCRP vesicular transport of lucifer yellow in Sf9 membrane vesicles; assay type: biochemical; conditions: for concentration inducing statistically significant (p < 0.01) decrease in transport of LY by BCRP: 10 μM lucifer yellow; for IC50: vesicular uptake of 10 μM lucifer yellow
T2 construct: made in house; host or cells: Sf9 insect cells (baculovirus)
T2 sequence (Q9UNQ0 1-655): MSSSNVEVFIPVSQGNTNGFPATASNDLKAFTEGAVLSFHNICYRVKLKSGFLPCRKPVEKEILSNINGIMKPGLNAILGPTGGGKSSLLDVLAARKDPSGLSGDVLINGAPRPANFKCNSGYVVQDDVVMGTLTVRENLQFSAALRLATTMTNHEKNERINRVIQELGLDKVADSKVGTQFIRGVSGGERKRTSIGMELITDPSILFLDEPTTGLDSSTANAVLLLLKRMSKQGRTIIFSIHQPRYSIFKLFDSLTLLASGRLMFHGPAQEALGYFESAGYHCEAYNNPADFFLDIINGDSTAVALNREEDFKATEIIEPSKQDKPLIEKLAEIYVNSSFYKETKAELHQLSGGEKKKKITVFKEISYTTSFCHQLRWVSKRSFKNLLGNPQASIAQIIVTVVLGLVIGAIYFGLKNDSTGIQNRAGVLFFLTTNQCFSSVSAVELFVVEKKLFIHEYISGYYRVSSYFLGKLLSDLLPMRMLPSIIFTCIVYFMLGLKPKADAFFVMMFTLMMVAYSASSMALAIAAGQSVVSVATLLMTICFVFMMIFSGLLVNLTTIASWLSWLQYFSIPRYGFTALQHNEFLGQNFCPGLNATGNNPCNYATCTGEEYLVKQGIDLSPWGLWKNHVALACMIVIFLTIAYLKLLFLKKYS
Procedure: Experiments were performed in insect membrane vesicles, as describe previously. Human BCRP and MRP2 were expressed in Sf9 insect cells by baculoviruses. At the third day of infection, cells were collected and membrane vesicles were obtained by mechanical disruption and differential centrifugation. To get full activity for BCRP, the cholesterol levels of the vesicles were adjusted to the level of mammalian membranes. Vesicles were stored at -80°C, total protein content of preparations was measured by the Lowry method (used as a reference of the quantity). Membrane vesicles (50 μg protein/sample) were incubated at 37 °C for 10 min (without or with 4 mM of Mg-ATP) in 50 μL volume, in the presence of transporter specific fluorescent substrates (10 μM lucifer yellow (LY) for BCRP and 5 μM 5(6)-Carboxy-2′,7′-dichlorofluorescein (CDCF) for MRP2). […] ATP dependent uptake of fluorescent substrates was examined in the presence of flavonoids (up to 50–200 μM). Each compound was dissolved in DMSO and solvent controls were applied in all experiments. […] After incubation, samples were rapidly filtered and washed on filter plate (MSFBN6B10, Millipore, Burlington, MA, USA). Accumulated substrates in vesicles were solved back from the filter by 100 μL of 10% sodium dodecyl sulfate and centrifuged into another plate. A 100-μL volume of fluorescence stabilizer was added to the samples (DMSO for LY, and 0.1 M NaOH for CDCF). Fluorescence of samples was measured by a plate reader (Victor X3 Perkin-Elmer, Waltham, MA, USA) at appropriate wavelengths (filters were λex = 405 nm and λem = 535 nm for LY as well as λex = 492 nm and λem = 635 nm for CDCF).

[3] = molecular target: T2, BCRP; experiment: BCRP vanadate sensitive ATPase activity in Sf9 membrane vesicles; assay type: biochemical; conditions: 3 mM Mg-ATP, 25 min, 37 °C
Procedure: ATPase activity was measured on Sf9 membrane vesicles containing human BCRP prepared as described in 2.5. Appropriate amounts of vesicles (10 μg/50 μL) were used in the assays. Experimental parameters were the same as it has been earlier reported. Membrane vesicles were incubated with 3 mM of Mg-ATP for 25 min at 37 °C. Effects of flavonoids were investigated up to 50 μM. […] ABC transporter function was determined as vanadate sensitive ATPase activity. Liberated inorganic phosphate was measured by a colorimetric reaction as described. Absorbance of samples was measured after 25 min at 660 nm.

[4] = some human subjects, 500 mg single dose of Q in certain oral carrier systems; cited from earlier work
[5] = S-mephenytoin hydroxylation, substrate 5 µM, read-out: IC50 for CYP2C19

T1 sequence (P33261 whole entry): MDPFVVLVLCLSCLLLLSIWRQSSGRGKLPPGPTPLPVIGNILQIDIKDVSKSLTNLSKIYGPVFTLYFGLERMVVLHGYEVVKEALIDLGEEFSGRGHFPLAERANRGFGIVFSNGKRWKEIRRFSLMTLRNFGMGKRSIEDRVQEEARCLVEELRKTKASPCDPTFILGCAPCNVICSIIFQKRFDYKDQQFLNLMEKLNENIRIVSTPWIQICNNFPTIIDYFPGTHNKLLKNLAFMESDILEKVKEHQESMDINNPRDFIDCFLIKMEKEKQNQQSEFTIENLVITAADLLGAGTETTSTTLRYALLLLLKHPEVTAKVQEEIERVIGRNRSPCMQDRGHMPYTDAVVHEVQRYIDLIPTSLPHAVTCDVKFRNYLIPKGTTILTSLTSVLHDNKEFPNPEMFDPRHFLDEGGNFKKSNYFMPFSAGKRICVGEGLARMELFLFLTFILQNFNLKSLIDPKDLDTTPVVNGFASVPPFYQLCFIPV

| Compound | IC50 [1, 5] [µM] | concentration inducing statistically significant (p < 0.01) decrease in metabolite formation, CYP2C19 [1] [µM] | concentration inducing statistically significant (p < 0.01) decrease in transport of LY by BCRP [2] [µM] | IC50 [2] [µM] | concentration inducing statistically significant (p < 0.01) increase in ATPase activity of BCRP [3] [µM] | IC50 [1] [µM] | peak plasma concentrations of total Q [4] [µM] |
| --- | --- | --- | --- | --- | --- | --- | --- |
| COc1cc(-c2oc3cc(O)cc(O)c3c(=O)c2OC2OC(C(=O)O)C(O)C(O)C2O)ccc1O (stereo not drawn) [I3G, isorhamnetin-3-glucuronide] | > 30 | 20 | 20 | > 30 | 10 | – | – |
| COc1cc(-c2oc3cc(O)cc(O)c3c(=O)c2O)ccc1O [IR, isorhamnetin] | – | 20 | 0.05 | – | 0.02 | > 30 | – |
| O=C(O)C1OC(Oc2c(-c3ccc(O)c(O)c3)oc3cc(O)cc(O)c3c2=O)C(O)C(O)C1O (stereo not drawn) [Q3G, quercetin-3-glucuronide] | > 30 | 20 | 1.0 | 13.5 | 50 | – | – |
| O=c1c(O)c(-c2ccc(O)c(OS(=O)(=O)O)c2)oc2cc(O)cc(O)c12 [Q3′S, quercetin-3′-sulfate] | > 30 | 20 | 0.2 | 3.2 | 0.4 | – | – |
| O=c1c(O)c(-c2ccc(O)c(O)c2)oc2cc(O)cc(O)c12 [Q, quercetin] | – | 10 | 0.05 | 0.13 | 0.08 | – | 5 to 10 |
